Data set [1] in a line: Particle characteristics of LNPs containing luciferase mRNA and novel ionizable lipids. Type of data set: physicochemical. On the procedure: The lipid solution contains 4 components: a PEG-conjugated lipid, an ionizable lipid, cholesterol, and a phospholipid (e.g., DSPC). Lipid stocks were prepared using the lipid identities and molar ratios as described, to achieve a total concentration of ˜7 mg/mL in 100% ethanol. Firefly luciferase mRNA (TriLink Biotechnologies, L-7202) or ornithine transcarbamylase (OTC) mRNA (TriLink Biotechnologies, custom designed) was diluted in acetate, pH 5 buffer and nuclease free water to achieve a target concentration of 0.366 mg/mL mRNA in 100 mM acetate, pH 5. Equal volumes of the lipid and nucleic acid solutions were blended at a flow rate of 400 mL/min through a T-connector, and diluted with ˜4 volumes of PBS, pH 7.4. Formulations were placed in Slide-A-Lyzer dialysis units (MWCO 10,000) and dialyzed overnight against 10 mM Tris, 500 mM NaCl, pH 8 buffer. Following dialysis, the formulations were concentrated to ˜0.6 mg/mL using VivaSpin concentrator units (MWCO 100,000) and dialyzed overnight against 5 mM Tris, 10% sucrose, pH 8 buffer. Formulations were filtered through a 0.2 μm syringe filter (PES membrane). Nucleic acid concentration was determined by the RiboGreen assay. Particle size and polydispersity were determined using a Malvern Nano Series Zetasizer.
LNP formulations containing novel ionizable lipids all produced stable particles with high encapsulation efficiency (Tables 1-7).

The subject of data set [2] is luciferase activity in the liver. Put plainly: Luciferase activity in liver after intravenous luciferase mRNA LNP. The conditions noted are these: 0.5 mg/kg IV, 6 h post-IV administration, BALB/c mice (n = 4). In kind it is in vivo. On the procedure: Frozen aliquots of liver were thawed and homogenized in 1 mL of 1×CCLR (Cell Culture Lysis Reagent) using a FastPrep® homogenizer. The homogenate was then centrifuged at 16,000 RPM for 10 minutes at 4° C. Twenty (20) μL of the supernatant was loaded into a 96-well white plate and luminescence measured following addition of luciferase reagent (Promega Luciferase Assay System). Luciferase activity was determined by comparing luminescence of the homogenized samples to luciferase protein standards. To account for any quenching of luminescence by components in the liver homogenate, luciferase was added to the liver homogenates of untreated animals and the resulting luminescence measured. The resulting quench factor was applied to all samples to obtain the corrected luciferase activity, and normalized per unit mass of tissue analyzed.

Where [3] appears, read: Table 5, luciferase mRNA LNP 1.6:54.6:32.8:10.9.
Setting [4] is: Table 1, luciferase mRNA LNP 1.6:54.6:32.8:10.9.
[5] abbreviates: Table 1, luciferase mRNA LNP 1.6:54.6:32.8:10.9 PEG2000-C-DMA:Ionizable lipid:Cholesterol:DSPC.
Where [6] appears, read: Table 2, luciferase mRNA LNP 1.6:54.6:32.8:10.9.

Consider `CCCCCCCCCCC(CCCCC(=O)OCC(CCCCCC)CCCCCCCC)N(CCCCCCCCCC)C(=O)CCCN(C)C` (stereo not drawn) [Compound 2, 2-Hexyldecyl 6-(N-decyl-4-(dimethylamino)butanamido)hexadecanoate], for which, in data set [1] (setting [3]), the “Final Product % EE” value was determined as 96%, the “Final Product PDI” value was found to be 0.08 and the “Final Product Z-avg” value is given as 81 nm. In data set [2] (Table 12), the “Luc Activity” value was determined as 7.11E+07 pg/g liver.
On to `CCCCCCCCCC(CC(=O)OCC(CCCCCC)CCCCCCCC)N(CCCN(C)C)S(=O)(=O)CCCC` (stereo not drawn) [Compound 49, 2-Hexyldecyl 3-(N-(3-(dimethylamino)propyl)butylsulfonamido)dodecanoate], for which, in data set [1] (setting [4]), the “Final Product % EE” value came out at 96% and the “Final Product PDI” value came out at 0.08. Moreover, in data set [1] (setting [5]), the “Final Product Z-avg” value is recorded as 61 nm. The “Luc Activity” value in data set [2] (Table 8) is on record as 8.36E+06 pg/g liver.
For `CCCCCCCCCCC(CCCCCCC(=O)OCCC(CCCCC)CCCCC)N(CCCN(C)C)C(=O)CCCCCCC(=O)OCCC(CCCCC)CCCCC` (stereo not drawn) [Compound 30], the “Luc Activity” value in data set [2] (Table 12) amounted to 3.76E+07 pg/g liver.
For the compound `CCCCCCCCCC(CC(=O)OCC(CCCCCC)CCCCCCCC)N(CCCN(C)C)S(=O)(=O)CCCCCCCC` (stereo not drawn) [Compound 48, 2-hexyldecyl 3-{N-[3-(dimethylamino)propyl]octane-1-sulfonamido}dodecanoate], in data set [1] (setting [4]), the “Final Product % EE” value came to 96% and the “Final Product PDI” value is 0.04. Also, the “Final Product Z-avg” value in data set [1] (setting [5]) is recorded as 71 nm. Also, the “Luc Activity” value in data set [2] (Table 8) came out at 6.49E+06 pg/g liver.
As for `CCCCC/C=C\CCCC(CCC/C=C\CCCCC)CN(C(=O)CCCN(C)C)C(CCCCCCCCCC)CCCCCCC(=O)OCCCCCCCCCC` (stereo not drawn) [Compound 36], the “Luc Activity” value in data set [2] (Table 11) was found to be 5.54E+06 pg/g liver.
For the compound `CCCCCCCCCCC(CCCCCCC(=O)OCC(CCCCCC)CCCCCCCC)N(OCCCN(C)C)C(=O)CCCCCCC(=O)OCC(CCCC)CCCCCC` (stereo not drawn) [Compound 41, 2-hexyldecyl 8-{8-[(2-butyloctyl)oxy]-N-[3-(dimethylamino)propoxy]-8-oxooctanamido}octadecanoate], in data set [1] (setting [3]), the “Final Product % EE” value was found to be 94%, the “Final Product PDI” value is on record as 0.04 and the “Final Product Z-avg” value came out at 70 nm. In addition, the “Luc Activity” value in data set [2] (Table 12) is on record as 6.69E+06 pg/g liver.
Regarding `CCCCCCCCCCC(CCCCCCC(=O)OCC(CCCCCC)CCCCCCCC)N(CCCN(C)C)C(=O)CCCCCCC(=O)OCCC(CCCCC)CCCCC` (stereo not drawn) [Compound 82], the “Luc Activity” value in data set [2] (Table 12) stood at 1.23E+07 pg/g liver.
With `CCCCC/C=C\CCCOC(=O)CC(CCCCCCCCC)N(CCCN(C)C)S(=O)(=O)CCCCCCCCCCC` (stereo not drawn) [Compound 52, (Z)-Dec-4-en-1-yl 3-(N-(3-(dimethylamino)propyl)undecylsulfonamido)dodecanoate], in data set [1] (setting [4]), the “Final Product % EE” value is given as 95% and the “Final Product PDI” value is recorded as 0.05. Moreover, the “Final Product Z-avg” value in data set [1] (setting [5]) worked out at 72 nm. Further, the “Luc Activity” value in data set [2] (Table 8) turned out to be 5.65E+06 pg/g liver.
Take `CCCCCCCCCC(CC(=O)OCC(CCCCCC)CCCCCCCC)N(CCCN(C)C)C(=O)CCCCC(=O)OCC(CCCC)CCCCCC` (stereo not drawn) [Compound 21, 2-hexyldecyl 3-{6-[(2-butyloctyl)oxy]-N-[3-(dimethylamino)propyl]-6-oxohexanamido}dodecanoate]: in data set [1] (setting [6]), the “Final Product % EE” value was 98%, the “Final Product PDI” value is on record as “(0.03)” and the “Final Product Z-avg” value is given as 77 nm. The “Luc Activity” value in data set [2] (Table 9) is given as 4.58E+07 pg/g liver.
As to `CCCCCCCCCCCS(=O)(=O)N(CCCN(C)C)C(CCCCCCCCC)CC(=O)OCC(CCCCCC)CCCCCCCC` (stereo not drawn) [Compound 51, 2-hexyldecyl 3-{N-[3-(dimethylamino)propyl]undecane-1-sulfonamido}dodecanoate], in data set [1] (setting [4]), the “Final Product % EE” value turned out to be 94% and the “Final Product PDI” value is given as 0.09. Moreover, the “Final Product Z-avg” value in data set [1] (setting [5]) was 62 nm. The “Luc Activity” value in data set [2] (Table 8) amounted to 2.50E+07 pg/g liver.
For `CCCCCCCCCCC(CCCCCCC(=O)OCC(CCCCCC)CCCCCCCC)N(CCCN(C)C)C(=O)CCCCCCC(=O)OCC(CCCC)CCCCCC` (stereo not drawn) [Compound 78], the “Luc Activity” value in data set [2] (Table 11) was 5.30E+07 pg/g liver.
On to `CCCCCCCCCC(=O)N(CCCN(C)C)C(CCCCCCCCC)CCOC(=O)C(F)(CCCCCC)CCCCCCCC` (stereo not drawn) [Compound 40, 3-{N-[3-(dimethylamino)propyl]decanamido}dodecyl 2-fluoro-2-hexyldecanoate], for which, in data set [1] (setting [6]), the “Final Product % EE” value is 98%, the “Final Product PDI” value is reported as “(0.05)” and the “Final Product Z-avg” value amounted to 87 nm. Besides, the “Luc Activity” value in data set [2] (Table 9) is listed as 3.57E+07 pg/g liver.
The matching figures for `CCCCCCCCCC(=O)N(CCCN(C)C)C(CCCCCCCCC)CC(=O)NNC(CCCCCCCC)CCCCCCCC` (stereo not drawn) [Compound 58, N-[3-(dimethylamino)propyl]-N-{1-[N′-(heptadecan-9-yl)hydrazinecarbonyl]undecan-2-yl}decanamide]: 99%, “(0.13)”, 81 nm and 3.11E+05 pg/g liver.
Take `CCCCC/C=C\CCCC(CCC/C=C\CCCCC)CN(C(=O)CCN(C)C)C(CCCCCCCCCC)CCCCCCC(=O)OCCCCCCCCCC` (stereo not drawn) [Compound 37]: the “Luc Activity” value in data set [2] (Table 11) came to 3.01E+06 pg/g liver.
For the compound `CCCCCCCCCCC(CCCC(=O)OCC(CCCCCC)CCCCCCCC)N(CCCN(C)C)C(=O)CCCCCCC(=O)OCC(CCCC)CCCCCC` (stereo not drawn) [Compound 25, 2-Hexyldecyl 5-(8-((2-butyloctyl)oxy)-N-(3-(dimethylamino)propyl)-8-oxooctanamido)-pentadecanoate], in data set [1] (setting [6]), the “Final Product % EE” value is 99%, the “Final Product PDI” value is on record as “(0.03)” and the “Final Product Z-avg” value was 78 nm. For the same compound, the “Luc Activity” value in data set [2] (Table 9) was 7.76E+06 pg/g liver.
With `CCCCCCCCCCC(CCCCCCC(=O)OCC(CCCCCC)CCCCCCCC)N(CCCCCCCC(=O)OCC(CCCCCC)CCCCCCCC)C(=O)CCCCN(C)C` (stereo not drawn) [Compound 64], the “Luc Activity” value in data set [2] (Table 12) is reported as 9.76E+07 pg/g liver.
Still for that read-out and setting: next, `CCCCCCCCCCC(CCCCCCC(=O)OCC(CCCCCC)CCCCCCCC)N(CCCN(C)C)C(=O)CCCCCCC(=O)OCc1cc(CCCCCC)cc(CCCCCC)c1` (stereo not drawn) [Compound 83]: 4.59E+07 pg/g liver.
For the compound `CCCCC/C=C\CCCC(CCC/C=C\CCCCC)CN(C(=O)CCCCN(C)C)C(CCCCCCCCCC)CCCCCCC(=O)OCCCCCCCCCC` (stereo not drawn) [Compound 35], the “Luc Activity” value in data set [2] (Table 11) was found to be 1.40E+07 pg/g liver.
In the case of `CCCCCCCCCCC(CCCCCCC(=O)OC(CCCCCCCC)CCCCCCCC)N(CCCCCCCC(=O)OCCC(CCCCC)CCCCC)C(=O)CCCN(C)C` (stereo not drawn) [Compound 68], the “Luc Activity” value in data set [2] (Table 12) worked out at 4.36E+07 pg/g liver.
Turning to `CCCCCCCCCCC(CCCCCCC(=O)OCC(CCCCCC)CCCCCCCC)N(CCCN(C)C)C(=O)CCCCCCCC(=O)OCC(CCCC)CCCCCC` (stereo not drawn) [Compound 80], the “Luc Activity” value in data set [2] (Table 12) came out at 3.28E+07 pg/g liver.
As to `CCCCCCCCCCOC(=O)CCCCCCC(=O)N(CCCN(C)C)C(CCCCCCCCCC)CCCCCCC(=O)OCC(CCCCCC)CCCCCCCC` (stereo not drawn) [Compound 79], in data set [2] (Table 11), the “Luc Activity” value is recorded as 1.05E+07 pg/g liver.
For the compound `CCCCCCCCCCC(CCCCCCC(=O)OC(CCCCCCCC)CCCCCCCC)N(CCCN(C)C)C(=O)CCCCCCC(=O)OCCC(CCCCC)CCCCC` (stereo not drawn) [Compound 31], in data set [2] (Table 12), the “Luc Activity” value is 1.47E+07 pg/g liver.
The same measure, in the same setting: next, `CCCCCCCCCCC(CCCCCCC(=O)OCC(CCCCCC)CCCCCCCC)N(CCCCCCCC(=O)OCC(CCCCCC)CCCCCCCC)C(=O)CCCN(C)C` (stereo not drawn) [Compound 63]: 6.23E+07 pg/g liver.
The same measure, in the same setting: then `CCCCCCCCCCC(CCCCCCC(=O)OCC(CCCCCC)CCCCCCCC)N(CCCN(C)C)C(=O)CCCCCCCCC(=O)OCC(CCCC)CCCCCC` (stereo not drawn) [Compound 81], with 3.47E+07 pg/g liver.

The values above are taken from patent US20250332112A1, “IONIZABLE CATIONIC LIPIDS FOR LIPID NANOPARTICLES” (GENEVANT SCIENCES GMBH, priority 2022, published 2025).
